One series can be described thus: in vitro. The settings on record: mouse.
A short description of series [1]: in vitro cytotoxicity, plating efficiency. To be noted: mouse.
Description: The cells are grown in humidified incubators at 37° C. in an atmosphere of 5% carbon dioxide/air (v/v).

Structures are written as SMILES. Converted amounts (≈) assume the structure as drawn.

`CC(=O)Nc1ccc(O)cc1` [acetaminophen] yielded a CC50 in “in vitro” of 1000 µg/mL (≈ 6.62 mM).

`CC(=O)Oc1ccccc1C(=O)O` [aspirin] came in with a CC50 in the series “in vitro” of 1500 µg/mL (≈ 8.33 mM).

For the compound `O=BOB(O)OB(O)OB=O` [borax], in series [1], the CC50 stood at 2000 µg/mL (≈ 12.7 mM).

For the origin of these results see patent publication US20070202138A1, “ANTIMICROBIAL COMPOSITIONS AND METHOD” (BIOFILM INNOVATIONS GROUP, LLC, priority 2006, published 2007).
